Test results as given in the supplement of paper PMC10307832.

Tests used:
Assay in all cases: relative viability (nuclei count vs DMSO), 5 days (fraction); higher = more cells survive
Ruxolitinib = compound: N#CC[C@H](C1CCCC1)n1cc(-c2ncnc3[nH]ccc23)cn1 [Ruxolitinib]
In short: (§1)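 Viability here means nuclei in treated wells divided by nuclei in vehicle wells, reported as the median across plates. Only plates with control CV below 25% and at least one doubling passed. Lung cancer cell lines in 1536-well plates were exposed to five √10-spaced library-drug doses for 5 days and counted from 4× Hoechst images in MetaXpress.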

VE-821 = compound: CS(=O)(=O)c1ccc(-c2cnc(N)c(C(=O)Nc3ccccc3)n2)cc1 [VE-821]
In short: as §1

Vismodegib = compound: CS(=O)(=O)c1ccc(C(=O)Nc2ccc(Cl)c(-c3ccccn3)c2)c(Cl)c1 [Vismodegib]
In short: as §1

VE-821 + Trametinib = compound: CS(=O)(=O)c1ccc(-c2cnc(N)c(C(=O)Nc3ccccc3)n2)cc1 [VE-821] + CC(=O)Nc1cccc(-n2c(=O)n(C3CC3)c(=O)c3c(Nc4ccc(I)cc4F)n(C)c(=O)c(C)c32)c1 [Trametinib] (partner 0.02 µM)
In short: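 Values are medians from duplicate plates. Each reflects relative viability, defined as the nuclei count of treated wells over that of vehicle wells. Lung cancer cell lines in 1536-well plates were pin-tool dosed one day after seeding with one drug alone or with a fixed anchor-drug dose plus five library-drug doses (not always all listed) in √10 steps, then fixed, stained and imaged at 4× after 5 days.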

Row | Cell Line | relative viability (Ruxolitinib; 0.08 µM) | relative viability (Ruxolitinib; 0.253 µM) | relative viability (Ruxolitinib; 0.8 µM) | relative viability (Ruxolitinib; 2.53 µM) | relative viability (Ruxolitinib; 8 µM) | relative viability (VE-821; 0.08 µM) | relative viability (VE-821; 0.253 µM) | relative viability (VE-821; 0.8 µM) | relative viability (VE-821; 2.53 µM) | relative viability (VE-821; 8 µM) | relative viability (Vismodegib; 0.08 µM) | relative viability (Vismodegib; 0.253 µM) | relative viability (Vismodegib; 0.8 µM) | relative viability (Vismodegib; 2.53 µM) | relative viability (Vismodegib; 8 µM) | relative viability (VE-821 + Trametinib; first compound 0.08 µM) | relative viability (VE-821 + Trametinib; first compound 0.253 µM) | relative viability (VE-821 + Trametinib; first compound 0.8 µM) | relative viability (VE-821 + Trametinib; first compound 2.53 µM) | relative viability (VE-821 + Trametinib; first compound 8 µM)
1 | NCI-H2228 | 0.764 | 0.964 | 1.3 | 0.809 | 0.737 | 0.938 | 1.03 | 0.806 | 1.27 | 0.728 | 1.07 | 1.13 | 1.04 | 0.889 | 0.89 | 0.51 | 0.645 | 0.354 | 0.644 | 0.382
2 | NCI-H522 | 1.01 | 0.95 | 1.01 | 0.895 | 0.874 | 0.974 | 0.938 | 0.934 | 1.06 | 0.849 | 0.973 | 0.876 | 0.957 | 1 | 1.01 | 0.859 | 0.753 | 0.65 | 0.769 | 0.717
3 | EKVX | 0.753 | 0.836 | 1 | 0.898 | 0.742 | 1.12 | 0.997 | 0.937 | 1.08 | 0.855 | 0.797 | 0.945 | 0.944 | 0.968 | 0.941 | 0.347 | 0.317 | 0.298 | 0.376 | 0.3
4 | HARA | 0.936 | 1.01 | 1.03 | 0.935 | 0.88 | 1.09 | 0.747 | 0.954 | 1.12 | 0.812 | 1 | 0.883 | 0.883 | 0.971 | 0.954 | 0.686 | 1.08 | 0.553 | 0.767 | 0.608
5 | LXF-289 | 0.965 | 0.996 | 0.938 | 0.944 | 0.919 | 1.06 | 1.1 | 1.09 | 1.06 | 1.14 | 1.02 | 0.989 | 1.03 | 0.988 | 0.902 | 0.708 | 0.641 | 0.773 | 0.745 | 0.741
6 | NCI-H1793 | 0.972 | 0.928 | 1.12 | 0.946 | 0.699 | 0.996 | 0.744 | 0.747 | 1.16 | 0.713 |  | 0.857 | 0.96 | 0.904 | 0.784 | 0.605 | 0.408 |  | 0.526 | 0.618
7 | NCI-H650 |  | 0.937 | 1.01 | 0.854 | 0.696 | 1.04 | 0.909 | 1.05 | 1.1 | 0.895 | 0.953 | 0.895 | 0.88 | 0.915 | 0.815 | 0.99 | 1.01 | 1.11 | 1.02 | 1.08
